Assay results published in ChEMBL document CHEMBL1130914, “Thromboxane modulating agents. 4. Design and synthesis of 3-(2-[[(4-chlorophenyl)sulfonyl]-amino]ethyl)benzenepropanoic acid derivatives as potent thromboxane receptor antagonists” (Bioorg Med Chem Lett, 1998).

How the values were obtained:
Thromboxane A2 receptor = target: T1, Thromboxane A2 receptor (Rattus norvegicus, UniProt P34978); test: In vitro Thromboxane A2 (TXA2) receptor antagonism was tested by its ability to inhibit the contraction of rat aorta induced by the stable thromboxane agonist U-46,619; assay type: functional, tissue-based; conditions: read-out: pA2 (converted)
T1 sequence (P34978 whole entry): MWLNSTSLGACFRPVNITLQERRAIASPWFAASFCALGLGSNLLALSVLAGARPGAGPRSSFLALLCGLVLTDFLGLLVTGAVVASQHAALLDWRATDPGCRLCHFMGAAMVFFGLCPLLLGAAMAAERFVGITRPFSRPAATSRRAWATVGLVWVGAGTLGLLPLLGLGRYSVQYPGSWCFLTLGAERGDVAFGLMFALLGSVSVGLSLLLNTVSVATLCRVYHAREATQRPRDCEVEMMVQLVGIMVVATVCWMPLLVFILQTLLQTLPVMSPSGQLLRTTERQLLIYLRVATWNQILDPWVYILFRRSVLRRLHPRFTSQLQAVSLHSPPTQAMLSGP

Thromboxane-A synthase = target: T2, Thromboxane-A synthase (Homo sapiens, UniProt P24557); test: Inhibitory activity against Thromboxane A2 synthase from human platelet microsomes.
T2 sequence (P24557 whole entry): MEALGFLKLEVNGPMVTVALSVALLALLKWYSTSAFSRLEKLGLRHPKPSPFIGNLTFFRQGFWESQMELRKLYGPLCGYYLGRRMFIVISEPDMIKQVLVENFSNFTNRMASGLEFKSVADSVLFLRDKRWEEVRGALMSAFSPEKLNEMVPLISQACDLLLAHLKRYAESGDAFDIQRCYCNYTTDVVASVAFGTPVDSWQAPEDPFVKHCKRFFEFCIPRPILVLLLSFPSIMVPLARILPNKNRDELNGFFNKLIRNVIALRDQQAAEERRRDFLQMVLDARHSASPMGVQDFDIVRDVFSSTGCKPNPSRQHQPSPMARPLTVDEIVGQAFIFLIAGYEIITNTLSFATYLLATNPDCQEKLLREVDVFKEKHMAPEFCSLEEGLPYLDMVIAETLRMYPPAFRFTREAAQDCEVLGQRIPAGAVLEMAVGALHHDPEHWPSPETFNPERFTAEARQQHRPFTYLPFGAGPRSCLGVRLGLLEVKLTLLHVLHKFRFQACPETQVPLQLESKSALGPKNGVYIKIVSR

[1] = tested on: Thromboxane A2 receptor (Canis lupus familiaris); test: Tested for the peroral dose required to maintain complete thromboxane receptor antagonism for > 12 hours.
[2] = tested on: Thromboxane A2 receptor (Canis lupus familiaris); test: Tested for peroral dose required to cause complete blockade of the response to the thromboxane receptor agonist U-46,619 (1 uM) for 48 hours

Row | SMILES | Kb (Thromboxane A2 receptor) | other results
1 | O=C(O)CCc1cc(CCNS(=O)(=O)c2ccc(Cl)cc2)cc(C(O)c2ccc(F)cc2)c1 (stereo not drawn) | 200 pM | –
2 | O=C(O)CCc1cccc(CCNS(=O)(=O)c2ccc(Cl)cc2)c1 | 2000 pM | –
3 | O=C(O)CCc1cc(CCNS(=O)(=O)c2ccc(Cl)cc2)cc(Cc2cccnc2)c1 | 398 pM | –
4 | CS(=O)(=O)c1ccc(Cc2cc(CCNS(=O)(=O)c3ccc(Cl)cc3)cc(CCC(=O)O)c2)cc1 | 63.1 pM | –
5 | O=C(O)CCc1cc(CCNS(=O)(=O)c2ccc(Cl)cc2)cc(Cc2ccncc2)c1 | 2.51 pM | IC50 (Thromboxane-A synthase): 47000 pM
6 | CS(=O)(=O)c1ccc(C(=O)c2cc(CCNS(=O)(=O)c3ccc(Cl)cc3)cc(CCC(=O)O)c2)cc1 | 316 pM | –
7 | COc1ccccc1Cc1cc(CCNS(=O)(=O)c2ccc(Cl)cc2)cc(CCC(=O)O)c1 | 63.1 pM | –
8 | CC(c1ccc(F)cc1)c1cc(CCNS(=O)(=O)c2ccc(Cl)cc2)cc(CCC(=O)O)c1 (stereo not drawn) | 3.98 pM | –
9 | O=C(O)CCc1cc(CCNS(=O)(=O)c2ccc(Cl)cc2)cc(C(=O)c2ccc(F)cc2)c1 | 100 pM | –
10 | COc1ccc(Cc2cc(CCNS(=O)(=O)c3ccc(Cl)cc3)cc(CCC(=O)O)c2)cc1 | 3.98 pM | –
11 | O=C(O)CCc1cc(CCNS(=O)(=O)c2ccc(Cl)cc2)cc(Cc2ccc(F)cc2)c1 | 25.1 pM | Activity [1]: 0.1 mg/kg; Activity [2]: 1 mg/kg
12 | COc1ccc(C(=O)c2cc(CCNS(=O)(=O)c3ccc(Cl)cc3)cc(CCC(=O)O)c2)cc1 | 25.1 pM | –
13 | O=C(O)CCc1cc(CCNS(=O)(=O)c2ccc(Cl)cc2)cc(Cc2ccccc2)c1 | 15.8 pM | –
14 | N#Cc1ccc(C(=O)c2cc(CCNS(=O)(=O)c3ccc(Cl)cc3)cc(CCC(=O)O)c2)cc1 | 39.8 pM | –
15 | O=C(O)CCc1cc(CCNS(=O)(=O)c2ccc(Cl)cc2)cc(Cc2cccc(F)c2)c1 | 79.4 pM | –
